In patent US20250026745A1 (Bluejay Therapeutics, Inc., priority 2023, published 2025):

Target: recombinant 17β-HSD13 protein (Homo sapiens (Human), UniProt Q7Z5P4)
Test: 17β-HSD13 biochemical assay (NAD+/NADH Glo chemiluminescence)
Details: 17β-HSD13 50 nM, NAD+ 10 mM, β-estradiol 20 μM, 2 hours room temperature
Protocol: 17β-HSD13 biochemical assays are generically described in patents WO 2022/020730, WO 2021/003295, and WO 2023/023310. More specifically, recombinant 17β-HSD13 protein was assayed in a buffer containing 200 mM Tris pH 7.5, 0.01% Triton X-100, and 0.02% BSA into a 384-well assay plate. Compounds were incubated with 17β-HSD13 (final 50 nM) and NAD+ (final 10 mM) at room temperature for 1 h prior to substrate addition. The assay reaction was then initiated by addition of β-estradiol (final 20 μM), and the reaction mixture was incubated for 2 hours at room temperature. Product formation was detected with chemiluminescence by adding equal volume of NAD+/NADH Glo reagent (Promega, #G9062) and read on a PHERAstar microplate reader (BMG LABTECH). IC50 values were determined with GraphPad Prism®, where log-transformed concentration values and the inhibition data were fitted to a four-parameter logistic equation. Y=Bottom+(Top−Bottom)/(1+10^((Log IC50−X)*HillSlope)). The original, % control, or % inhibition data are represented by Y along with their minimal (Bottom) and maximal (Top) values. The inhibitor concentration is represented by X, IC50 is the concentration at 50% maximal value, and Hill Slope is the slope factor.

recombinant 17β-HSD13 protein, sequence (Q7Z5P4 20-300): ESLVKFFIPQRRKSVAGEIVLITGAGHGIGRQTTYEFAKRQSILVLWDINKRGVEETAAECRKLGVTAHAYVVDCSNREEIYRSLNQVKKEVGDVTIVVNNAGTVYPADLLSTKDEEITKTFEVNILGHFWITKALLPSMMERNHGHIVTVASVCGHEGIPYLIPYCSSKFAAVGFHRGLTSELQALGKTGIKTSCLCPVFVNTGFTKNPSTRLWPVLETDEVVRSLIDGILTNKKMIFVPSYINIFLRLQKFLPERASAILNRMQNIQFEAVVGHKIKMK

IC50 [nM]	Compound
2960	O=C1N(CC(F)(F)F)C(=O)C2(CC2)N1Cc1nnc(-c2cc(C(F)(F)F)c(F)c(O)n2)s1 [Compound I-60, 4-((5-(5-fluoro-6-hydroxy-4-(trifluoromethyl)pyridin-2-yl)-1,3,4-thiadiazol-2-yl)methyl)-6-(2,2,2-trifluoroethyl)-4,6-diazaspiro[2.4]heptane-5,7-dione]
505	O=C1N(Cc2ccccc2)C(=O)C2(CC2)N1Cc1nnc(-c2cc(C(F)(F)F)c(F)c(O)n2)s1 [Compound I-61, 6-benzyl-4-((5-(5-fluoro-6-hydroxy-4-(trifluoromethyl)pyridin-2-yl)-1,3,4-thiadiazol-2-yl)methyl)-4,6-diazaspiro[2.4]heptane-5,7-dione]
84.9	O=C1N(CC(F)(F)F)C(=O)C2(CC2)N1Cc1nnc(-c2cc(C3CC3)c(F)c(O)c2F)s1 [Compound I-62, 4-((5-(5-cyclopropyl-2,4-difluoro-3-hydroxyphenyl)-1,3,4-thiadiazol-2-yl)methyl)-6-(2,2,2-trifluoroethyl)-4,6-diazaspiro[2.4]heptane-5,7-dione]
18	O=C1N(Cc2ccccc2)C(=O)C2(CC2)N1Cc1nnc(-c2cc(C3CC3)c(F)c(O)c2F)s1 [Compound I-63, 6-benzyl-4-((5-(5-cyclopropyl-2,4-difluoro-3-hydroxyphenyl)-1,3,4-thiadiazol-2-yl)methyl)-4,6-diazaspiro[2.4]heptane-5,7-dione]
1390	O=C1N(CC(F)(F)F)C(=O)C2(CC2)N1Cc1nnc(-c2ccc(F)c(O)n2)s1 [Compound I-73, 4-((5-(5-fluoro-6-hydroxypyridin-2-yl)-1,3,4-thiadiazol-2-yl)methyl)-6-(2,2,2-trifluoroethyl)-4,6-diazaspiro[2.4]heptane-5,7-dione]
147	O=C1N(Cc2ccccc2)C(=O)C2(CC2)N1Cc1nnc(-c2ccc(F)c(O)n2)s1 [Compound I-74, 6-benzyl-4-((5-(5-fluoro-6-hydroxypyridin-2-yl)-1,3,4-thiadiazol-2-yl)methyl)-4,6-diazaspiro[2.4]heptane-5,7-dione]
1360	CCN1C(=O)N(Cc2nnc(-c3ccc(F)c(O)n3)s2)C2(CC2)C1=O [Compound I-75, 6-ethyl-4-((5-(5-fluoro-6-hydroxypyridin-2-yl)-1,3,4-thiadiazol-2-yl)methyl)-4,6-diazaspiro[2.4]heptane-5,7-dione]
1390	CC(C)N1C(=O)N(Cc2nnc(-c3ccc(F)c(O)n3)s2)C2(CC2)C1=O [Compound I-76, 4-((5-(5-fluoro-6-hydroxypyridin-2-yl)-1,3,4-thiadiazol-2-yl)methyl)-6-isopropyl-4,6-diazaspiro[2.4]heptane-5,7-dione]
1060	CC[C@@H](C)N1C(=O)N(Cc2nnc(-c3ccc(F)c(O)n3)s2)C2(CC2)C1=O [Compound I-77, (R)-6-(sec-butyl)-4-((5-(5-fluoro-6-hydroxypyridin-2-yl)-1,3,4-thiadiazol-2-yl)methyl)-4,6-diazaspiro[2.4]heptane-5,7-dione]
934	CC[C@H](C)N1C(=O)N(Cc2nnc(-c3ccc(F)c(O)n3)s2)C2(CC2)C1=O [Compound I-78, (S)-6-(sec-butyl)-4-((5-(5-fluoro-6-hydroxypyridin-2-yl)-1,3,4-thiadiazol-2-yl)methyl)-4,6-diazaspiro[2.4]heptane-5,7-dione]
122	C[C@H](c1ccccc1)N1C(=O)N(Cc2nnc(-c3ccc(F)c(O)n3)s2)C2(CC2)C1=O [Compound I-79, (R)-4-((5-(5-fluoro-6-hydroxypyridin-2-yl)-1,3,4-thiadiazol-2-yl)methyl)-6-(1-phenylethyl)-4,6-diazaspiro[2.4]heptane-5,7-dione]
76.8	C[C@@H](c1ccccc1)N1C(=O)N(Cc2nnc(-c3ccc(F)c(O)n3)s2)C2(CC2)C1=O [Compound I-80, (S)-4-((5-(5-fluoro-6-hydroxypyridin-2-yl)-1,3,4-thiadiazol-2-yl)methyl)-6-(1-phenylethyl)-4,6-diazaspiro[2.4]heptane-5,7-dione]
602	CC(C)(C)N1C(=O)N(Cc2nnc(-c3ccc(F)c(O)n3)s2)C2(CC2)C1=O [Compound I-81, 6-(tert-butyl)-4-((5-(5-fluoro-6-hydroxypyridin-2-yl)-1,3,4-thiadiazol-2-yl)methyl)-4,6-diazaspiro[2.4]heptane-5,7-dione]
4.07	CC(C)(C)N1C(=O)N(Cc2nnc(-c3ccc(F)c(O)c3F)s2)C2(CC2)C1=O [Compound I-84, 6-(tert-butyl)-4-((5-(2,4-difluoro-3-hydroxyphenyl)-1,3,4-thiadiazol-2-yl)methyl)-4,6-diazaspiro[2.4]heptane-5,7-dione]
13.2	O=C1N(c2ccccc2)C(=O)C2(CC2)N1Cc1nnc(-c2ccc(F)c(O)c2F)s1 [Compound I-85, 4-((5-(2,4-difluoro-3-hydroxyphenyl)-1,3,4-thiadiazol-2-yl)methyl)-6-phenyl-4,6-diazaspiro[2.4]heptane-5,7-dione]
11.3	O=C1N(Cc2nnc(-c3ccc(F)c(O)c3F)s2)C2(CC2)C(=O)N1C1(C(F)(F)F)CC1 [Compound I-87, 4-((5-(2,4-difluoro-3-hydroxyphenyl)-1,3,4-thiadiazol-2-yl)methyl)-6-(1-(trifluoromethyl)cyclopropyl)-4,6-diazaspiro[2.4]heptane-5,7-dione]
29.1	O=C1N([C@@H](c2ccccc2)C(F)(F)F)C(=O)C2(CC2)N1Cc1nnc(-c2ccc(F)c(O)n2)s1 [Compound I-88, (S)-4-((5-(5-fluoro-6-hydroxypyridin-2-yl)-1,3,4-thiadiazol-2-yl)methyl)-6-(2,2,2-trifluoro-1-phenylethyl)-4,6-diazaspiro[2.4]heptane-5,7-dione]
15.6	O=C1N(C(c2ccc(F)cc2F)C(F)(F)F)C(=O)C2(CC2)N1Cc1nnc(-c2ccc(F)c(O)n2)s1 (centres unmarked) [Compound I-89, 6-(1-(2,4-difluorophenyl)-2,2,2-trifluoroethyl)-4-((5-(5-fluoro-6-hydroxypyridin-2-yl)-1,3,4-thiadiazol-2-yl)methyl)-4,6-diazaspiro[2.4]heptane-5,7-dione]
6.53	O=C1N([C@@H](c2ccc(F)cc2F)C(F)(F)F)C(=O)C2(CC2)N1Cc1nnc(-c2ccc(F)c(O)c2F)s1 [Compound I-90B, (S)-4-((5-(2,4-difluoro-3-hydroxyphenyl)-1,3,4-thiadiazol-2-yl)methyl)-6-(1-(2,4-difluorophenyl)-2,2,2-trifluoroethyl)-4,6-diazaspiro[2.4]heptane-5,7-dione]
14.3	O=C1N(CC(F)F)C(=O)C2(CC2)N1Cc1nnc(-c2ccc(F)c(O)c2F)s1 [Compound I-92, 4-((5-(2,4-difluoro-3-hydroxyphenyl)-1,3,4-thiadiazol-2-yl)methyl)-6-(2,2-difluoroethyl)-4,6-diazaspiro[2.4]heptane-5,7-dione]
75.4	CNC(=O)c1ccc(CN2C(=O)N(Cc3nnc(-c4ccc(F)c(O)c4F)s3)C3(CC3)C2=O)cc1 [Compound I-93, 4-((4-((5-(2,4-difluoro-3-hydroxyphenyl)-1,3,4-thiadiazol-2-yl)methyl)-5,7-dioxo-4,6-diazaspiro[2.4]heptan-6-yl)methyl)-N-methylbenzamide]
6.77	CC#CC(N1C(=O)N(Cc2nnc(-c3ccc(F)c(O)c3F)s2)C2(CC2)C1=O)C(F)(F)F (centres unmarked) [Compound I-94, 4-((5-(2,4-difluoro-3-hydroxyphenyl)-1,3,4-thiadiazol-2-yl)methyl)-6-(1,1,1-trifluoropent-3-yn-2-yl)-4,6-diazaspiro[2.4]heptane-5,7-dione]
62	O=C1N(C(c2ccccc2)c2ccccc2)C(=O)C2(CC2)N1Cc1nnc(-c2ccc(F)c(O)c2F)s1 [Compound I-95, 6-benzhydryl-4-((5-(2,4-difluoro-3-hydroxyphenyl)-1,3,4-thiadiazol-2-yl)methyl)-4,6-diazaspiro[2.4]heptane-5,7-dione]
4.39	O=C1N(Cc2nnc(-c3ccc(F)c(O)c3Cl)s2)C2(CC2)C(=O)N1C1(c2ccccc2)CC1 [Compound I-103, 4-((5-(2-chloro-4-fluoro-3-hydroxyphenyl)-1,3,4-thiadiazol-2-yl)methyl)-6-(1-phenylcyclopropyl)-4,6-diazaspiro[2.4]heptane-5,7-dione]
176	O=C1N(Cc2nnc(-c3ccc(F)c(O)n3)s2)C2(CC2)C(=O)N1C1(c2ccccc2)CC1 [Compound I-104, 4-((5-(5-fluoro-6-hydroxypyridin-2-yl)-1,3,4-thiadiazol-2-yl)methyl)-6-(1-phenylcyclopropyl)-4,6-diazaspiro[2.4]heptane-5,7-dione]
66	(R)-4-((5-(2,4-difluoro-3- hydroxyphenyl)-1,3,4-thiadiazol-2- yl)methyl)-6-(1-hydroxypropan-2- yl)-4,6-diazaspiro[2.4]heptane-5,7- dione [Compound I-46]
